{"source": "PubChem BioAssay AID330", "about": "(DTP/NCI, 2004)", "test_system": "P388 leukemia ip, CD2F1 mice, survival T/C", "assay": "NCI In Vivo Anticancer Drug Screen. Data for tumor model P388 Leukemia (intraperitoneal) in CD2F1 (CDF1) mice", "settings": "endpoint: median survival time, higher = longer survival", "in_short": "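Mice carrying the transplanted tumor received test compound or vehicle. Survival was recorded in each group, and the value is the treated-group measurement divided by that of the vehicle-treated control group.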", "key": {"[1]": {"settings": "dose: 60.0 mg/kg/injection, schedule: Q01DX005 (ip), vehicle: Klucel (hydroxypropylcellulose) (HPC)"}, "[2]": {"settings": "dose: 120.0 mg/kg/injection, schedule: Q01DX005 (ip), vehicle: Klucel (hydroxypropylcellulose) (HPC)"}, "[3]": {"settings": "dose: 240.0 mg/kg/injection, schedule: Q01DX005 (ip), vehicle: Klucel (hydroxypropylcellulose) (HPC)"}, "[4]": {"settings": "dose: 50.0 mg/kg/injection, schedule: Q01DX005 (ip), vehicle: saline with Tween-80"}, "[5]": {"settings": "dose: 100.0 mg/kg/injection, schedule: Q01DX005 (ip), vehicle: saline with Tween-80"}, "[6]": {"settings": "dose: 200.0 mg/kg/injection, schedule: Q01DX005 (ip), vehicle: saline with Tween-80"}, "[7]": {"settings": "dose: 60.0 mg/kg/injection, schedule: Q01DX005 (ip), vehicle: saline"}}, "note": "Values joined by “and” are separate entries in the source; they are usually repeats but may differ in a detail not shown here. Equal values may be shown once. Inconclusive results and toxic doses are left out."}
{"smiles": "O=c1[nH]cnc2nc(N3CCN(c4ccccc4)CC3)sc12", "values": [{"measurement": "T/C", "setting": "dose: 60.0 mg/kg/injection, schedule: Q01DX005 (ip), vehicle: saline with Tween-80", "value": "87 % of control"}, {"measurement": "T/C", "setting": "dose: 120.0 mg/kg/injection, schedule: Q01DX005 (ip), vehicle: saline with Tween-80", "value": "87 % of control"}, {"measurement": "T/C", "setting": "dose: 240.0 mg/kg/injection, schedule: Q01DX005 (ip), vehicle: saline with Tween-80", "value": "87 % of control"}]}
{"smiles": "O[C@H]1c2cccn2-c2ccccc2S[C@H]1c1ccccc1", "values": [{"measurement": "T/C", "setting": "[1]", "value": "91 % of control"}, {"measurement": "T/C", "setting": "[2]", "value": "94 % of control"}, {"measurement": "T/C", "setting": "[3]", "value": "102 % of control"}]}
{"smiles": "Cc1[nH]c(N)nc(=S)c1CCCNc1ccc(C(=O)NC(CCC(=O)O)C(=O)O)cc1", "note": "(stereo not drawn)", "values": [{"measurement": "T/C", "setting": "dose: 6.25 mg/kg/injection, schedule: Q01DX005 (ip), vehicle: Klucel (hydroxypropylcellulose) (HPC)", "value": "101 % of control"}, {"measurement": "T/C", "setting": "dose: 12.5 mg/kg/injection, schedule: Q01DX005 (ip), vehicle: Klucel (hydroxypropylcellulose) (HPC)", "value": "99 % of control"}, {"measurement": "T/C", "setting": "dose: 25.0 mg/kg/injection, schedule: Q01DX005 (ip), vehicle: Klucel (hydroxypropylcellulose) (HPC)", "value": "98 % of control"}]}
{"smiles": "CCOCCC(=O)NCC(=O)NC1C(CO)OC(Nc2ncnc3nc[nH]c23)C(O)C1O", "note": "(stereo not drawn)", "values": [{"measurement": "T/C", "setting": "dose: 3.12 mg/kg/injection, schedule: Q01DX009 (ip), vehicle: water", "value": "98 % of control"}, {"measurement": "T/C", "setting": "dose: 6.25 mg/kg/injection, schedule: Q01DX009 (ip), vehicle: water", "value": "88 % of control"}, {"measurement": "T/C", "setting": "dose: 12.5 mg/kg/injection, schedule: Q01DX009 (ip), vehicle: water", "value": "98 % of control"}, {"measurement": "T/C", "setting": "dose: 25.0 mg/kg/injection, schedule: Q01DX009 (ip), vehicle: water", "value": "106 % of control"}, {"measurement": "T/C", "setting": "dose: 50.0 mg/kg/injection, schedule: Q01DX009 (ip), vehicle: water", "value": "101 % of control"}]}
{"smiles": "O=C(NCc1ccccc1)c1ccccc1NS(=O)(=O)c1ccc(Cl)c(Cl)c1", "values": [{"measurement": "T/C", "setting": "[4]", "value": "96 % of control"}, {"measurement": "T/C", "setting": "[5]", "value": "87 % of control"}, {"measurement": "T/C", "setting": "[6]", "value": "93 % of control"}]}
{"smiles": "CCC(=O)OC1CCC2C3CCC(=O)OC3C(C)(CCC(=O)O)CC12C", "note": "(stereo not drawn)", "values": [{"measurement": "T/C", "setting": "[4]", "value": "93 % of control"}, {"measurement": "T/C", "setting": "[5]", "value": "99 % of control"}, {"measurement": "T/C", "setting": "[6]", "value": "90 % of control"}]}
{"smiles": "CCOC(=O)c1cnc2cc3c(cc2c1Nc1cccc(C)c1C)OCO3", "values": [{"measurement": "T/C", "setting": "[1]", "value": "101 % of control"}, {"measurement": "T/C", "setting": "[2]", "value": "101 % of control"}, {"measurement": "T/C", "setting": "[3]", "value": "95 % of control"}]}
{"smiles": "C/C(=N/N=C(N)N)c1cn(C(=N)N)nc1C", "values": [{"measurement": "T/C", "setting": "dose: 7.5 mg/kg/injection, schedule: Q01DX005 (ip), vehicle: saline", "value": "100 % of control and 101 % of control"}, {"measurement": "T/C", "setting": "dose: 15.0 mg/kg/injection, schedule: Q01DX005 (ip), vehicle: saline", "value": "109 % of control and 95 % of control"}, {"measurement": "T/C", "setting": "dose: 30.0 mg/kg/injection, schedule: Q01DX005 (ip), vehicle: saline", "value": "101 % of control and 95 % of control"}, {"measurement": "T/C", "setting": "[7]", "value": "101 % of control and 107 % of control"}, {"measurement": "T/C", "setting": "[2]", "value": "99 % of control"}, {"measurement": "T/C", "setting": "[3]", "value": "117 % of control"}]}
{"smiles": "COC(=O)C(N)C(C)C", "note": "(stereo not drawn)", "values": [{"measurement": "T/C", "setting": "dose: 50.0 mg/kg/injection, schedule: Q01DX005 (ip), vehicle: saline", "value": "100 % of control"}, {"measurement": "T/C", "setting": "dose: 100.0 mg/kg/injection, schedule: Q01DX005 (ip), vehicle: saline", "value": "92 % of control"}]}
{"smiles": "CCCCCCCCCCCCCCCC(=O)NC1CC(OC2CC(O)(C(C)=O)Cc3c(O)c4c(c(O)c32)C(=O)c2c(OC)cccc2C4=O)OC(C)C1O", "note": "(stereo not drawn)", "values": [{"measurement": "T/C", "setting": "dose: 0.75 mg/kg/injection, schedule: Q01DX009 (ip), vehicle: other", "value": "111 % of control"}, {"measurement": "T/C", "setting": "dose: 1.5 mg/kg/injection, schedule: Q01DX009 (ip), vehicle: other", "value": "98 % of control"}, {"measurement": "T/C", "setting": "dose: 3.0 mg/kg/injection, schedule: Q01DX009 (ip), vehicle: other", "value": "113 % of control"}]}
{"smiles": "CC1=CC(c2ccccc2)=CS(=O)(N(C)C)=C1", "note": "(stereo not drawn)", "values": [{"measurement": "T/C", "setting": "[7]", "value": "100 % of control"}, {"measurement": "T/C", "setting": "dose: 120.0 mg/kg/injection, schedule: Q01DX005 (ip), vehicle: saline", "value": "104 % of control"}, {"measurement": "T/C", "setting": "dose: 240.0 mg/kg/injection, schedule: Q01DX005 (ip), vehicle: saline", "value": "104 % of control"}]}
{"smiles": "CC(=O)OC1COC(NC(=O)N(CCCl)N=O)C(OC(C)=O)C1OC(C)=O", "note": "(stereo not drawn)", "values": [{"measurement": "T/C", "setting": "dose: 1.5 mg/kg/injection, schedule: Q01DX009 (ip), vehicle: saline with Tween-80", "value": "111 % of control"}, {"measurement": "T/C", "setting": "dose: 3.0 mg/kg/injection, schedule: Q01DX009 (ip), vehicle: saline with Tween-80", "value": "121 % of control"}, {"measurement": "T/C", "setting": "dose: 6.0 mg/kg/injection, schedule: Q01DX009 (ip), vehicle: saline with Tween-80", "value": "151 % of control"}, {"measurement": "T/C", "setting": "dose: 12.0 mg/kg/injection, schedule: Q01DX009 (ip), vehicle: saline with Tween-80", "value": "161 % of control"}, {"measurement": "T/C", "setting": "dose: 24.0 mg/kg/injection, schedule: Q01DX009 (ip), vehicle: saline with Tween-80", "value": "272 % of control"}, {"measurement": "T/C", "setting": "dose: 48.0 mg/kg/injection, schedule: Q01DX009 (ip), vehicle: saline with Tween-80", "value": "114 % of control"}]}
